According to patent US8431706B2, “1,2,3,4-tetrahydroqinoline derivative useful for the treatment of diabetes” (Eli Lilly and Company, priority 2011, dated 2013):

Experiments:
Gal4 PPARα = molecular target: T1, Gal4 PPARα (Homo sapiens, UniProt Q07869); assay: Gal4 PPARα reporter functional assay in CV1 cells; assay type: cell-based; conditions: examined up to 10 μM; luciferase reporter; 24 hours
T1 construct: expressed in transfected cells; host or cells: CV1 (African green monkey kidney)
T1 sequence (Q07869 239-466 limits assumed): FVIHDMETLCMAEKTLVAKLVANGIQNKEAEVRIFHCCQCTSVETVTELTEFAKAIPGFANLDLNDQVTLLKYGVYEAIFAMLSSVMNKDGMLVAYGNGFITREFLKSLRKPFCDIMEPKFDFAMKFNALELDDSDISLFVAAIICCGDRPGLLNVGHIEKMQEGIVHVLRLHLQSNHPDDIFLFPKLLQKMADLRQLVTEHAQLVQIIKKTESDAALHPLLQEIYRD
Source text: Gal4 PPARα, Gal4 PPARδ, and PPARγ reporter functional assays are also used to monitor the selectivity of the exemplified compound. CV1 cells, which are derived from the renal tissue of an African green monkey, are transfected with various receptor and reporter plasmids using Fugene. For the Gal4 PPARα and PPARδ assays, a reporter plasmid containing five tandem copies of the yeast transcription protein Gal4 response element, cloned upstream of a firefly luciferase gene driven by the major late promoter of adenovirus, is transfected together with a Simian Virus 40 (SV40) driven plasmid constitutively expressing a hybrid protein containing the Gal4 DNA binding domain (DBD), and either the PPARα or PPARδ ligand binding. For the PPARγ assay, plasmids encoding PPARγ and RXRα, both driven by a cytomegalovirus (CMV) promoter are transfected together with a plasmid containing luciferase reporter cDNA driven by the TK promoter and a receptor response element (2×PPRE). Cells are transfected in T225 cm^2 cell culture flasks in DMEM media with 5% charcoal-stripped FBS. […] After 24 hours incubation with the compound, cells are lysed and luciferase activity is determined as a measure of receptor activation by luminescence. […] The maximum percent stimulation is determined versus maximum stimulation obtained with 10 μM of an appropriate PPAR agonist reference compound. […]

[1] = tested on: primary rodent pancreatic islets of Langerhans; assay: GDIS assay in primary rodent pancreatic islets; assay type: cell-based; conditions: 3.0 uM with rat islets and 11.2 mM glucose; compared to 11.2 mM glucose; 90 min; P<0.05
Source text: Because activation of GPR40 is known to result in insulin secretion, which is dependent on high glucose concentrations, two separate assay systems (an insulinoma cell line and primary rodent islets) are developed to further characterize compounds that are known to increase intracellular calcium in the GPR40 primary assay discussed above.
GDIS assays using primary rodent pancreatic islets of Langerhans are also used to characterize the exemplified compound. Pancreatic islets are isolated from male SD (Sprague Dawley) rats by collagenase digestion and Histopaque density gradient separation. The islets are cultured overnight in RPMI-1640 medium with GlutaMAXn (stabilized, dipeptide form of L-glutamine (Invitrogen catalog #61870-010)) to facilitate recovery from the isolation process. Insulin secretion is determined by a 90 minute incubation in EBSS (Earle's Balances Salt Solution) buffer in a 48-well plate. Briefly, islets are first preincubated in EBSS with 2.8 mM glucose for 30 min, and are then transferred to a 48-well plate (four islets/well) containing 150 μl 2.8 mM glucose, and incubated with 150 μl of EBSS with 2.8 or 11.2 mM glucose in the presence or absence of test compound for 90 minutes. The buffer is removed from the wells at the end of the incubation, and assayed for insulin levels using the Rat Insulin ELISA kit (Mercodia). […]

human GPR40 = human GPR40 (Homo sapiens, UniProt O14842); conditions: maximal response compared to the natural ligand, linoleic acid
Chain of human GPR40 (O14842 whole entry): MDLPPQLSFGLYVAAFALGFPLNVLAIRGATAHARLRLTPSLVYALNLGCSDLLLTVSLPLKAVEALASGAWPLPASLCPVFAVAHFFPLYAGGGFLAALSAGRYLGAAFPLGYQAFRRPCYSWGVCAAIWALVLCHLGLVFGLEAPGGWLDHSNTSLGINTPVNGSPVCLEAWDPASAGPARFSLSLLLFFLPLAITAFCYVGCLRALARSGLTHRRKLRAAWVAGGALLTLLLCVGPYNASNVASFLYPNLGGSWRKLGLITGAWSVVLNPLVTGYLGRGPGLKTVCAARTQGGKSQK

`CC#C[C@@H](CC(=O)O)c1ccc(OCc2ccc(CN3CCCc4cccc(OC)c43)s2)cc1` [Example 1, (3S)-3-[4-[[5-[(8-Methoxy-3,4-dihydro-2H-quinolin-1-yl)methyl]-2-thienyl]methoxy]phenyl]hex-4-ynoic acid] was tested, and the “functional activation of PPARα” value (Gal4 PPARα) was “No functional activation”, the increase in insulin [1] was 2.1 fold and the Percent efficacy (human GPR40) was 84+/−24%.
